No end group written: not given here.
Columns and labels:
[1] = test system: senility-accelerated mice (SAM-P/8 strain); assay: Passive avoidance learning test; format: in vivo, mouse; details: SAM-P/8, sixth month after birth; s.c. once a week from third week after birth; group 1 150 μg/kg/day, group 2 80 μg/kg/day; test trial 24 hours after acquisition trial; compared to control (SAM-P/8); FIG. 1
Procedure: In a passive avoidance learning test, remembering ability of senility-accelerated mice of the SAM-P/8 strain decreases from the third month from birth. The effect of the peptide of the present invention for improving said learning disability was investigated. Thus, a mouse was placed in front of a dark box and its ability to remember what it learned was measured using the time it took to come into the box as an index. Electric current was turned on in the dark box after the mouse came into the box so that an electric shock was applied. […] The test trial was conducted 24 hours after the acquisition trial.
The peptide of the present invention was subcutaneously injected once a week since the third week after birth and its effect of improving the passive avoiding ability which was lowered in SAM-P/8 was investigated.

[2] = test system: senility-accelerated mice (SAM-P/8 strain); assay: Water maze task (Morris' water maze task); format: in vivo, mouse
From the text: A platform was placed at 1 cm under the water surface in a circular swimming pool for the experiment and then fine Styrofoam beads were uniformly sprinkled onto the water surface so that a mouse was unable to recognize the platform. Any hint to the mouse in the space around the device (such as persons in charge of the experiment, table, fluorescent light and machines for the experiment) was always kept constant during the experimental period. Four starting points were randomly selected, a mouse was placed into the water, turning its head to the wall of the pool, and its diving time until it escaped to the platform was measured. When the mouse climbed up to the platform, it was left as it was for 15 seconds. […] The case from one starting point was defined as one trial and four trials were done every ten minutes and defined as one block. Four blocks were carried out in total every other day. Senility-accelerated mice (SAM-P/8) which were not administered any compounds of the present invention were used as a control. […] After the above-menfioned four blocks were conducted, the platform was removed, the mouse was permitted to swim for a certain period, and the time for swimming in each of the four areas was measured. […] Therefore, the learning and remembering abilities could be determined measuring the staying time in each of the four areas.

[3] = test system: neuronal death in the CA1 subfields of the hippocampus; assay: Protective effect on cerebral neurons after ischemic insult (common carotid artery occlusion); format: in vivo, Wister-strain rat; details: continuous intracerebroventricular infusion 850 μg/ml; carotid occlusion 15 minutes; histology five days after ischemia; 4 rats/group
Procedure: Additionally, the effects of the peptides of the present invention on neuronal death in the CA1 subfields of the hippocampus were tested as follows:
The peptide fragment of the present invention, the 1-29 amino acid residue peptide fragment of bovine aFGF in which Cys, an amino acid at the 16-position, was substituted with Ala or the 1-29 amino acid residue peptide fragment of bovine aFGF in which Cys, an amino acid at the 16-position, was substituted with Ser, was administered by continuous intracerebroventricular infusion (850 μg/ml. respectively) into the lateral cerebral ventricles of Wister-strain rat (250-300 g. 4 rats/a group) and their common carotid arteries were occluded for 15 minutes to induce ischemic insult. Five days after ischemia, the rats were deeply anesthetized with sodium pentobarbital and transcardially perfused. Then, the brains were frozen and cut coronally in 20 μm sections by microtomy, and stained by Nissl bodies. The sections were examined by histological analysis. As a result of the analyses, the protecting effect of the peptide of the present invention on neuronal death in the CA1 subfields of the hippocampus was observed (Ala-substituted peptide; 3/4 rats, Ser-substituted peptide; 4/4 rats).

FNLPLGNYKKPKLLYASNGGTFLRILPDG
latency (seconds): time until the mouse came into the dark box in the test trial [1]: unexpectedly higher | diving time (latency) until escape to the platform, Block 1 to Block 4 ([2]; SAM-P/8, ninth month from birth, dosing as in passive avoidance test, compared to the decrease for control (SAM-P/8), FIG. 2): unexpectedly decreased | staying time in area 3, where the platform was located ([2]; SAM-P/8, platform removed after four blocks, compared to control (SAM-P/8), t-test p<0.001, FIG. 3): unexpectedly higher | protecting effect on neuronal death in the CA1 subfields of the hippocampus observed [3]: 3/4

— patent publication US5891848A, “Peptide fragments” (Nippon Zoki Pharmaceutical Co., Ltd., priority 1995, dated 1999)
